Measured values: patent US6358969B1, “3-desmethylrapamycin or derivatives thereof, processes for their preparation and their use as antifungal agents and immunosuppressants” (SmithKline Beecham p.l.c., priority 1991, dated 2002)
Converted amounts (≈) assume the structure as drawn. Read-outs that look alike come from different tables or passages of the source.

Columns and labels:
Assay type in all cases: cell-based
Candida albicans = experiment: Antifungal activity (stated characteristic of the compound)
Candida albicans 731079 = experiment: Minimal Inhibitory Concentration, broth microtitre dilution; conditions: 37° C., inoculum 10^5 cells/ml, read-out: Minimum Inhibitory Concentration (MIC)
Protocol: (§1) Method—The Minimal Inhibitory Concentration (MIC) was determined by diluting the compound in a broth medium in a microtitre tray. The organisms were diluted and added to the wells to provide a final inoculum of approximately 10^5 cells per ml or 10^4 fungal spores per ml. The trays were incubated at 37° C. and the turbidity of each well noted at intervals. The (MIC) was taken as the lowest concentration (in mg/ml) which prevented significant growth.

Aspergillus niger [1] = experiment: as above; conditions: 37° C., inoculum 10^4 spores/ml, read-out: Minimum Inhibitory Concentration (MIC)
Protocol: as §1

[2] = tested on: Trichophyton mentagrophytes 569A; experiment: Spectrum of activity, agar diffusion zones of inhibition; conditions: SAB agar, 24 hours, read-out: Zones of inhibition (diameter)
Protocol: (§2) Method—The spectrum of activity was determined by placing solutions of the compound, prepared in sodium phosphate buffer, pH 6.6, in wells in seeded Sabouraud's Dextrose Agar. Activity was assessed by measuring the zones of inhibition following incubation at 37° C. (yeasts and Aspergillus niger) or 30° C. (other filamentous fungi) for 24 hours.

[3] = tested on: Hendersonula torulides TH65; experiment: as above; conditions: SAB agar, 24 hours, read-out: Zones of inhibition (diameter)
Protocol: as §2

Rhizopus oryzae 21602 = experiment: as above; conditions: Rhizopus arrhizus, SAB agar, 24 hours, read-out: Zones of inhibition (diameter)
Protocol: as §2

Saccharomyces cerevisiae = experiment: as above; conditions: SAB agar, 24 hours, read-out: Zones of inhibition (diameter)
Protocol: as §2

Paecilomyces varioti = experiment: as above; conditions: SAB agar, 24 hours, read-out: Zones of inhibition (diameter)
Protocol: as §2

[4] = tested on: Pityrosporum canis 0024RE; experiment: as above; conditions: SAB agar, 24 hours, read-out: Zones of inhibition (diameter)
Protocol: as §2

Aspergillus niger [5] = experiment: as above; conditions: SAB agar, 24 hours, read-out: Zones of inhibition (diameter)
Protocol: as §2

Candida albicans 73/079 = experiment: as above; conditions: SAB agar, 24 hours, read-out: Zones of inhibition (diameter)
Protocol: as §2

[6] = tested on: Crytococcus neoformans 451; experiment: as above; conditions: SAB agar, 24 hours, read-out: Zones of inhibition (diameter)
Protocol: as §2

[7] = tested on: yeasts and filamentous fungi; experiment: Agar diffusion test, overall spectrum of activity; conditions: summary of Table 1
Protocol: as §2

For COC1CC2CCC(C)C(O)(O2)C(=O)C(=O)N2CCCCC2C(=O)OC(C(C)CC2CCC(O)C(OC)C2)CC(=O)C(C)/C=C(\C)C(O)C(O)C(=O)C(C)CC(C)/C=C/C=C/C=C/1C (stereo not drawn), the “Antifungal activity against Candida albicans” value (Candida albicans) was “shows antifungal activity”, the MIC (Candida albicans 731079; Candida albicans, 731079, 24 h, day 1 of incubation) was 32 mg/L (≈ 35.5 µM) and the MIC (Candida albicans 731079; Candida albicans, 731079, 48 h, day 2 of incubation) was 32 mg/L (≈ 35.5 µM). The MIC (Aspergillus niger [1]; 24 h, day 1 of incubation) was 16 mg/L (≈ 17.8 µM), the MIC (Aspergillus niger [1]; 48 h, day 2 of incubation) was 32 mg/L (≈ 35.5 µM) and the zone of inhibition at 100 µg/mL ([2]; CONC 100 μg/ml) was 42 mm. It also gave a zone of inhibition at 500 µg/mL ([2]; CONC 500 μg/ml) of 43 mm, a zone of inhibition at 100 µg/mL ([3]; CONC 100 μg/ml) of 33 mm and a zone of inhibition at 500 µg/mL ([3]; CONC 500 μg/ml) of 36 mm. For the same molecule, the zone of inhibition at 100 µg/mL (Rhizopus oryzae 21602; CONC 100 μg/ml) was 46 mm, the zone of inhibition at 500 µg/mL (Rhizopus oryzae 21602; CONC 500 μg/ml) was 47 mm and the zone of inhibition at 100 µg/mL (Saccharomyces cerevisiae; CONC 100 μg/ml) was 34 mm. It also gave a zone of inhibition at 500 µg/mL (Saccharomyces cerevisiae; CONC 500 μg/ml) of 33 mm, a zone of inhibition at 100 µg/mL (Paecilomyces varioti; CONC 100 μg/ml) of 26 mm and a zone of inhibition at 500 µg/mL (Paecilomyces varioti; CONC 500 μg/ml) of 28 mm. The zone of inhibition at 100 µg/mL ([4]; CONC 100 μg/ml) was 0 mm, the zone of inhibition at 500 µg/mL ([4]; CONC 500 μg/ml) was 0 mm and the zone of inhibition at 100 µg/mL (Aspergillus niger [5]; CONC 100 μg/ml) was 46 mm. The zone of inhibition at 500 µg/mL (Aspergillus niger [5]; CONC 500 μg/ml) was 47 mm, the zone of inhibition at 100 µg/mL (Candida albicans 73/079; CONC 100 μg/ml) was 29 mm and the zone of inhibition at 500 µg/mL (Candida albicans 73/079; CONC 500 μg/ml) was 29 mm. The zone of inhibition at 100 µg/mL ([6]; CONC 100 μg/ml) was 29 mm, the zone of inhibition at 500 µg/mL ([6]; CONC 500 μg/ml) was 29 mm and the “Spectrum of activity in the agar diffusion test” value [7] was “broad spectrum activity”.
